This note sets out measurements from patent US12371454B2, “Cyclic peptide compound having Kras inhibitory action” (priority 2019, dated 2025).

As usually defined, the pIC50 is −log10 of the IC50, conventionally taken in molar units.

pIC50: −log10 of the molar value. Positions of bridges follow the written chain, without caps; N, C: chain ends. Non-standard residues stand in square brackets, D forms with d. Residues, ends and D or L forms follow the SMILES beside them. *: point of attachment. hPhe(3-Cl-4-CF3) = N[C@@H](CCc1ccc(C(F)(F)F)c(Cl)c1)C(=O)O; hPhe(3-F,4-CF3) = N[C@@H](CCc1ccc(C(F)(F)F)c(F)c1)C(=O)O; hPhe(4-CF3) = N[C@@H](CCc1ccc(C(F)(F)F)cc1)C(=O)O; NMePhe(4-Me) = CN[C@@H](Cc1ccc(C)cc1)C(=O)O; NMeGly(cPent) = CN[C@H](C(=O)O)C1CCCC1; NMeCha = CN[C@@H](CC1CCCCC1)C(=O)O; NMeD = CN[C@@H](CC(=O)O)C(=O)O; CH2CONHtBu = CC(C)(C)NC(=O)C*; NMeL = CN[C@@H](CC(C)C)C(=O)O; NMeV = CN[C@H](C(=O)O)C(C)C; d(β3hA) = C[C@@H](N)CC(=O)O; NMeAbu = CC[C@H](NC)C(=O)O; NMeS = CN[C@@H](CO)C(=O)O; NMeA = CN[C@@H](C)C(=O)O; Nle = CCCC[C@H](N)C(=O)O; Piperidide = C1CCN(*)CC1; Pyrrolidide = C1CCN(*)C1; dNMeA = CN[C@H](C)C(=O)O; Ac5c = NC1(C(=O)O)CCCC1; Aze = O=C(O)[C@@H]1CCN1; Abu = CC[C@H](N)C(=O)O; Ac4c = NC1(C(=O)O)CCC1; CH2CMe2OH = CC(C)(O)C*; Aib = CC(C)(N)C(=O)O; Isopentyl = CC(C)CC*; NEtG = CCNCC(=O)O; Sar = CNCC(=O)O

The target of the test is T1, Kras and SOS1 (biotin-tagged human Kras loaded with GDP, His-tagged human SOS1) (Homo sapiens, UniProt P01116, G12D).
T1 construct: made in house; host or cells: E. coli (stated for Kras only)
T1 sequence (P01116 1-188 isoform P01116-2 G12D): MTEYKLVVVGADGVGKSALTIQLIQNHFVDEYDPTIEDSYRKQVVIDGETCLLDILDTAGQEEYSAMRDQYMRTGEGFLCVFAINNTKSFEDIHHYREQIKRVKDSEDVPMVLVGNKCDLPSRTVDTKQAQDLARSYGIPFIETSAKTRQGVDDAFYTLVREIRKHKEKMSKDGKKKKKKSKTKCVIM
Nature of the test: Protein-protein interaction inhibition between Kras and SOS1 (KrasGl2D-SOS PPI) using AlphaScreen. As to conditions: AlphaScreen; biotin-tagged human Kras loaded with GDP, His-tagged human SOS1; read-out: KRAS G12D-SOS PPI IC50. The test is classed as binding. The essentials:
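Binding between SOS1 and Kras is detected as bead-proximity luminescence: illuminate Ni-conjugated donors (680 nm), collect 520-620 nm emission from streptavidin-conjugated acceptors; Kras carries biotin and GDP loaded after purification, SOS1 carries a His tag.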
Background: In Alpha technology, singlet oxygen from a donor bead excites a nearby acceptor bead.
In the case of `CC[C@@H]1NC(=O)[C@H]([C@@H](C)CC)NC(=O)[C@H](CC(C)C)N(C)C(=O)C[C@@H](C)NC(=O)[C@H](C(C)C)N(C)C(=O)C2(CCCC2)NC(=O)[C@@H]2CCCN2C(=O)[C@H](CCc2ccc(C(F)(F)F)c(Cl)c2)NC(=O)CN(C)C(=O)[C@H](CC2CCCCC2)N(C)C(=O)CN(C)C1=O` [Compound 1459] (cyclo([Abu][Sar][NMeCha][Sar][hPhe(3-Cl-4-CF3)]P[Ac5c][NMeV][d(β3hA)][NMeL]I)), the pIC50 was 6.54.

Regarding `CC[C@H](C)[C@@H]1NC(=O)[C@H](C)N(C)C(=O)C[C@@H](C)NC(=O)[C@H](C2CCCC2)N(C)C(=O)C2(CCCC2)NC(=O)[C@@H]2CCCN2C(=O)[C@H](CCc2ccc(C(F)(F)F)c(Cl)c2)NC(=O)[C@@H](C)N(C)C(=O)[C@H](Cc2ccc(C)cc2)N(C)C(=O)CN(C)C(=O)CN(C)C1=O` [Compound 1465] (cyclo([Ac5c][NMeGly(cPent)][d(β3hA)][NMeA]I[Sar][Sar][NMePhe(4-Me)][dNMeA][hPhe(3-Cl-4-CF3)]P)), the pIC50 is 7.29. The value for `CC[C@H](C)[C@@H]1NC(=O)[C@H](CC(C)C)N(C)C(=O)C[C@@H](C)NC(=O)[C@H](CC(C)C)N(C)C(=O)C(C)(C)NC(=O)[C@H](COCC(=O)NC(C)(C)C)N(C)C(=O)[C@H](CCc2ccc(C(F)(F)F)c(Cl)c2)NC(=O)CN(C)C(=O)[C@H](COCCC(C)C)N(C)C(=O)CN(C)C(=O)CN(C)C1=O` [Compound 1467] (cyclo([Aib][NMeL][d(β3hA)][NMeL]I[Sar][Sar][NMeS](Isopentyl)[Sar][hPhe(3-Cl-4-CF3)][NMeS](CH2CONHtBu))) was 6.92.

Regarding `CC[C@H](C)[C@@H]1NC(=O)[C@H](CC(C)C)N(C)C(=O)C[C@@H](C)NC(=O)[C@H](CC)N(C)C(=O)C2(CCCC2)NC(=O)[C@@H]2CCCN2C(=O)[C@H](CCc2ccc(C(F)(F)F)c(F)c2)NC(=O)CN(C)C(=O)[C@H](CC2CCCCC2)N(C)C(=O)CN(C)C(=O)CN(C)C1=O` [Compound 1469] (cyclo([Ac5c][NMeAbu][d(β3hA)][NMeL]I[Sar][Sar][NMeCha][Sar][hPhe(3-F,4-CF3)]P)), the negative-log IC50 (pIC50) was 6.64. The value for `CC[C@H](C)[C@@H]1NC(=O)[C@H](CC(C)C)N(C)C(=O)C[C@@H](C)NC(=O)[C@H](CC(C)C)N(C)C(=O)C(C)(C)NC(=O)[C@H](COCC(C)(C)O)N(C)C(=O)[C@H](CCc2ccc(C(F)(F)F)c(Cl)c2)NC(=O)CN(C)C(=O)[C@H](COCCC(C)C)N(C)C(=O)[C@@H]2CCN2C(=O)CN(CC)C1=O` [Compound 1472] (cyclo([Aib][NMeL][d(β3hA)][NMeL]I[NEtG][Aze][NMeS](Isopentyl)[Sar][hPhe(3-Cl-4-CF3)][NMeS](CH2CMe2OH))) was 7.17; that for `CC[C@H](C)[C@@H]1NC(=O)[C@H](C)N(C)C(=O)C[C@@H](C)NC(=O)[C@H](C2CCCC2)N(C)C(=O)C2(CCCC2)NC(=O)[C@@H]2CCCN2C(=O)[C@H](CCc2ccc(C(F)(F)F)c(Cl)c2)NC(=O)CN(C)C(=O)[C@H](CC2CCCCC2)N(C)C(=O)CN(C)C(=O)CN(C)C1=O` [Compound 1478] (cyclo([Ac5c][NMeGly(cPent)][d(β3hA)][NMeA]I[Sar][Sar][NMeCha][Sar][hPhe(3-Cl-4-CF3)]P)) was 8.52. The value for `CC[C@H](C)[C@@H]1NC(=O)[C@H](C)N(C)C(=O)C[C@@H](C)NC(=O)[C@H](C2CCCC2)N(C)C(=O)C2(CCCC2)NC(=O)[C@@H]2CCCN2C(=O)[C@H](CCc2ccc(C(F)(F)F)c(Cl)c2)NC(=O)[C@H]2CCCN2C(=O)[C@H](CC2CCCCC2)N(C)C(=O)[C@@H]2CCN2C(=O)CN(C)C1=O` [Compound 1479] (cyclo([Ac5c][NMeGly(cPent)][d(β3hA)][NMeA]I[Sar][Aze][NMeCha][dP][hPhe(3-Cl-4-CF3)]P)) was 6.92; that for `CC[C@H](C)[C@@H]1NC(=O)[C@H](CC(C)C)N(C)C(=O)C[C@@H](C(=O)N2CCCCC2)N(C)C(=O)[C@H](CC(C)C)N(C)C(=O)C(C)(C)NC(=O)[C@H](COCC(=O)NC(C)(C)C)N(C)C(=O)[C@H](CCc2ccc(C(F)(F)F)c(Cl)c2)NC(=O)CN(C)C(=O)[C@H](COCCC(C)C)N(C)C(=O)CN(C)C(=O)CN(C)C1=O` [Compound 1480] ([NMeL]I[Sar][Sar][NMeS](Isopentyl)[Sar][hPhe(3-Cl-4-CF3)][NMeS](CH2CONHtBu)[Aib][NMeL][NMeD]-Piperidide; lactam N-11) was 8.05; that for `CC[C@H](C)[C@@H]1NC(=O)[C@H](CC(C)C)N(C)C(=O)C[C@@H](C)NC(=O)[C@H](CC(C)C)N(C)C(=O)C(C)(C)NC(=O)[C@H](COCC(C)(C)O)N(C)C(=O)[C@H](CCc2ccc(C(F)(F)F)c(Cl)c2)NC(=O)CN(C)C(=O)[C@H](COCCC(C)C)N(C)C(=O)CN(CC)C(=O)CN(C)C1=O` [Compound 1484] (cyclo([Aib][NMeL][d(β3hA)][NMeL]I[Sar][NEtG][NMeS](Isopentyl)[Sar][hPhe(3-Cl-4-CF3)][NMeS](CH2CMe2OH))) was 6.72. The value for `CC[C@H](C)[C@@H]1NC(=O)[C@H](CC(C)C)N(C)C(=O)C[C@@H](C)NC(=O)[C@H](C2CCCC2)N(C)C(=O)C2(CCCC2)NC(=O)[C@@H]2CCCN2C(=O)[C@H](CCc2ccc(C(F)(F)F)c(Cl)c2)NC(=O)[C@H]2CCCN2C(=O)[C@H](Cc2ccc(C)cc2)N(C)C(=O)CN(C)C(=O)CN(C)C1=O` [Compound 1487] (cyclo([Ac5c][NMeGly(cPent)][d(β3hA)][NMeL]I[Sar][Sar][NMePhe(4-Me)][dP][hPhe(3-Cl-4-CF3)]P)) was 6.47; that for `CC[C@H](C)[C@@H]1NC(=O)[C@H](CC(C)C)N(C)C(=O)C[C@@H](C)NC(=O)[C@H](C2CCCC2)N(C)C(=O)C2(CCCC2)NC(=O)[C@@H]2CCCN2C(=O)[C@H](CCc2ccc(C(F)(F)F)c(Cl)c2)NC(=O)[C@H]2CCCN2C(=O)[C@H](Cc2ccc(C)cc2)N(C)C(=O)[C@@H]2CCN2C(=O)CN(C)C1=O` [Compound 1488] (cyclo([Ac5c][NMeGly(cPent)][d(β3hA)][NMeL]I[Sar][Aze][NMePhe(4-Me)][dP][hPhe(3-Cl-4-CF3)]P)) was 6.59.

Consider `CC[C@H](C)[C@@H]1NC(=O)[C@H](CC(C)C)N(C)C(=O)C[C@@H](C(=O)N2CCCC2)NC(=O)[C@H](CC(C)C)N(C)C(=O)C2(CCCC2)NC(=O)[C@@H]2CCCN2C(=O)[C@H](CCc2ccc(C(F)(F)F)c(F)c2)NC(=O)CN(C)C(=O)[C@H](CC2CCCCC2)N(C)C(=O)CN(C)C(=O)CN(C)C1=O` [Compound 1489] ([NMeL]I[Sar][Sar][NMeCha][Sar][hPhe(3-F,4-CF3)]P[Ac5c][NMeL]D-Pyrrolidide; lactam N-11), for which the pIC50 was 7.74.

Turning to `CCCC[C@@H]1NC(=O)[C@H](CC(C)C)N(C)C(=O)C[C@@H](C)NC(=O)[C@H](CC(C)C)N(C)C(=O)C2(CCCC2)NC(=O)[C@@H]2CCCN2C(=O)[C@H](CCc2ccc(C(F)(F)F)c(F)c2)NC(=O)CN(C)C(=O)[C@H](CC2CCCCC2)N(C)C(=O)CN(C)C(=O)CN(C)C1=O` [Compound 1490] (cyclo([Ac5c][NMeL][d(β3hA)][NMeL][Nle][Sar][Sar][NMeCha][Sar][hPhe(3-F,4-CF3)]P)), the pIC50 was 6.49. For `CC(C)C[C@H]1C(=O)N[C@@H](C(C)C)C(=O)N(C)CC(=O)N(C)CC(=O)N(C)[C@@H](CC2CCCCC2)C(=O)N(C)CC(=O)N[C@@H](CCc2ccc(C(F)(F)F)c(F)c2)C(=O)N2CCC[C@H]2C(=O)NC2(CCCC2)C(=O)N(C)[C@@H](CC(C)C)C(=O)N[C@H](C)CC(=O)N1C` [Compound 1493] (cyclo([Ac5c][NMeL][d(β3hA)][NMeL]V[Sar][Sar][NMeCha][Sar][hPhe(3-F,4-CF3)]P)) the value was 7.00. The value for `CC[C@H](C)[C@@H]1NC(=O)[C@H](C)N(C)C(=O)C[C@@H](C)NC(=O)[C@H](C2CCCC2)N(C)C(=O)C2(CCCC2)NC(=O)[C@@H]2CCCN2C(=O)[C@H](CCc2ccc(C(F)(F)F)c(Cl)c2)NC(=O)[C@H]2CCCN2C(=O)[C@H](Cc2ccc(C)cc2)N(C)C(=O)[C@@H]2CCN2C(=O)CN(C)C1=O` [Compound 1494] (cyclo([Ac5c][NMeGly(cPent)][d(β3hA)][NMeA]I[Sar][Aze][NMePhe(4-Me)][dP][hPhe(3-Cl-4-CF3)]P)) was 6.85; that for `CC[C@H](C)[C@@H]1NC(=O)[C@H](CC(C)C)N(C)C(=O)C[C@@H](C(=O)N2CCCCC2)N(C)C(=O)[C@H](CC(C)C)N(C)C(=O)C(C)(C)NC(=O)[C@H](COCC(=O)NC(C)(C)C)N(C)C(=O)[C@H](CCc2ccc(C(F)(F)F)cc2)NC(=O)CN(C)C(=O)[C@H](COCCC(C)C)N(C)C(=O)CN(C)C(=O)CN(C)C1=O` [Compound 1502] ([NMeL]I[Sar][Sar][NMeS](Isopentyl)[Sar][hPhe(4-CF3)][NMeS](CH2CONHtBu)[Aib][NMeL][NMeD]-Piperidide; lactam N-11) was 7.62. Consider `CC[C@H](C)[C@@H]1NC(=O)[C@H](CC(C)C)N(C)C(=O)C[C@@H](C)NC(=O)[C@H](CC(C)C)N(C)C(=O)C2(CCCC2)NC(=O)[C@@H]2CCCN2C(=O)[C@H](CCc2ccc(C(F)(F)F)c(Cl)c2)NC(=O)CN(C)C(=O)[C@H](CC2CCCCC2)N(C)C(=O)CN(C)C(=O)CN(C)C1=O` [Compound 1503] (cyclo([Ac5c][NMeL][d(β3hA)][NMeL]I[Sar][Sar][NMeCha][Sar][hPhe(3-Cl-4-CF3)]P)), for which the pIC50 was 7.80. The value for `CC[C@H](C)[C@@H]1NC(=O)[C@H](C)N(C)C(=O)C[C@@H](C)NC(=O)[C@H](C2CCCC2)N(C)C(=O)C2(CCC2)NC(=O)[C@@H]2CCCN2C(=O)[C@H](CCc2ccc(C(F)(F)F)c(Cl)c2)NC(=O)CN(C)C(=O)[C@H](CC2CCCCC2)N(C)C(=O)CN(C)C(=O)CN(C)C1=O` [Compound 1506] (cyclo([Ac4c][NMeGly(cPent)][d(β3hA)][NMeA]I[Sar][Sar][NMeCha][Sar][hPhe(3-Cl-4-CF3)]P)) was 8.54.
